Laboratory results as given in US20250136592A1, “C-LINKED INHIBITORS OF ENL/AF9 YEATS” (Bridge Medicines, priority 2021, published 2025).

Assays:
ENL YEATS domain = ENL YEATS domain (Homo sapiens (Human), UniProt Q03111); assay: TR-FRET ENL Screening Assay; details: 6xHIS ENL YEATS domain binding to H3K9cr peptide
Method: Compounds of the invention were tested in a TR-FRET ENL Screening Assay. TR-FRET (time-resolved fluorescence energy transfer) can be used to quantify ENL YEATS domain binding to a crotonylated histone peptide (H3K9cr, aa1-20). Streptavidin-Europium (Eu) chelate binds the biotinylated peptide, while Anti-6×HIS ULight™ binds 6×HIS-ENL. When Eu chelate is excited at 320 nm, fluorescence resonance energy transfer (FRET) occurs if Eu and ULight are made proximal by ENL binding to the acyl-peptide.
Low control (LC) wells received 5 μL of assay buffer instead of ENL protein. […] The response at each compound concentration minus the LC value was converted to percent inhibition of the vehicle control group response (HC-LC).

[1] = tested on: MV4:11 (MLL-AF4 MLL) cells; assay: Cell viability assay (CellTiter-Glo), 12 days; format: cell-based; details: Homo sapiens, 288 h, MV4;11 cells, 12 day, read-out: CTG_MV4, 11 12 DAY_EC50
Method: The assays were conducted over 12 days and the cells being split on days 4 and 8. […] Blank wells received cell culture medium. Plates were incubated for 4 days at 37° C. with 5% CO2. On days 4 and day 8 the cells were split and incubated for a further 4 days whilst an aliquot of cells were taken for the CTG readout. For the cell splitting, 270 nL of compounds or DMSO was added to a new 96 well cell culture plate to which 90 μL of medium plus 10 μL of cells from the original assay plate (after mixing) or 100 μL of medium (Blank wells) was added. This was repeated on day 8.
Cell viability was assessed using the CellTiter-Glo® homogeneous luminescent assay kit (Promega, G9243), according to the manufacturer's instructions. This quantifies ATP, which indicates the presence of metabolically active cells. […] The resulting data were analyzed as follows:
where vehicle are cells treated with 0.3% DMSO, Blank is culture medium. IC50 determinations were calculated by fitting the curve using XLfit (v5.3.1.3): Y=Bottom+(Top−Bottom)/(1+10^((LogIC50−X)*HillSlope)).

Chain of ENL YEATS domain (Q03111 1-138): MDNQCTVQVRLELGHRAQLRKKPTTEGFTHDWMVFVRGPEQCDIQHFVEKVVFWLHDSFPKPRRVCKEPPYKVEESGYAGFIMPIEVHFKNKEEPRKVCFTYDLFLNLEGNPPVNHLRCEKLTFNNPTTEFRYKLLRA

`CN1C(=O)COc2cc(C(=O)Nc3cc4[nH]c([C@H]5CCCCN5C)cc4cn3)ccc21` [Example 105, (R)-4-methyl-N-(2-(1-methylpiperidin-2-yl)-1H-pyrrolo[3,2-c]pyridin-6-yl)-3-oxo-3,4-dihydro-2H-benzo[b][1,4]oxazine-7-carboxamide] showed an IC50 (ENL YEATS domain) of 145 nM and an EC50 [1] of 416 nM.
